In ChEMBL document CHEMBL3885881, “DrugMatrix”:

Species: Rattus norvegicus
Experiment: DrugMatrix - Regimen: Daily Repeat
Assay type: toxicity, organism-based, Sprague-Dawley
Design: regimen Daily Repeat, gender Male, age 6-8 weeks
Settings: in vivo, sc, route mini-PUMP - SUBCUTANEOUS, vehicle 100 % SALINE
[1] = 2 mg/kg, 72 h, tissue Blood, dose level High, time 3 day
[2] = 2 mg/kg, 72 h, tissue Plasma, dose level High, time 3 day
[3] = 2 mg/kg, 120 h, tissue Blood, dose level High, time 5 day
[4] = 2 mg/kg, 120 h, tissue Plasma, dose level High, time 5 day
[5] = 2 mg/kg, […], tissue Blood, dose level High, time 14 day
[6] = 2 mg/kg, […], tissue Plasma, dose level High, time 14 day

With CC(C)NCC(O)c1ccc(O)c(O)c1 (centres undefined) [ISOPROTERENOL] as the molecule, how does the “NUCLEATED RED BLOOD CELLS” value (0 mg/kg, […], tissue Blood, dose level Control, time 14 day) read?
The value was 0.17 /100WBC.

And the “CREATINE PHOSPHOKINASE” value (0 mg/kg, […], tissue Plasma, dose level Control, time 14 day)?
The value was 262 u/L.

And the ABSOLUTE BASOPHIL [1]?
Its ABSOLUTE BASOPHIL is 95 cells/µL.

What about the ABSOLUTE EOSINOPHIL [1] of the same molecule?
The ABSOLUTE EOSINOPHIL was 95 cells/µL.

What about the ABSOLUTE LYMPHOCYTE [1] of the same molecule?
Its ABSOLUTE LYMPHOCYTE is 13000 cells/µL.

And the ABSOLUTE MONOCYTE [1]?
Its ABSOLUTE MONOCYTE is 420 cells/µL.

And the BASOPHIL [1]?
Its BASOPHIL is 0.5%.

What about the EOSINOPHIL [1] of the same molecule?
The EOSINOPHIL was 0.55%.

And the “ERYTHROCYTE COUNT” value [1]?
Its value is 6.36 x10E6/uL.

What about the HEMATOCRIT [1] of the same molecule?
Its HEMATOCRIT is 43.4%.

What about the HEMOGLOBIN [1] of the same molecule?
The HEMOGLOBIN was 13 G/DL.

And the “LEUKOCYTE COUNT” value [1]?
The value was 17.82 x10E3/uL.

And the LYMPHOCYTE [1]?
Its LYMPHOCYTE is 73.55%.

What about the “MEAN CORPUSCULAR HEMOGLOBIN” value [1] of the same molecule?
The value was 20.5 pg.

What about the “MEAN CORPUSCULAR HEMOGLOBIN CONCENTRATION” value [1] of the same molecule?
The value was 30.05 G/DL.

And the “MEAN CORPUSCULAR VOLUME” value [1]?
Its value is 68.3 fL.

What about the MONOCYTE [1] of the same molecule?
The MONOCYTE was 2.35%.

And the NEUTROPHIL [1]?
Its NEUTROPHIL is 22.05%.

And the “PLATELET COUNT” value [1]?
The value was 1170.5 x10E3/uL.

What about the “ALANINE AMINOTRANSFERASE” value [2] of the same molecule?
The value was 32 u/L.

And the ALBUMIN [2]?
The ALBUMIN was 3.9 G/DL.

And the “ALKALINE PHOSPHATASE” value [2]?
The value was 349 u/L.

What about the “ASPARTATE AMINOTRANSFERASE” value [2] of the same molecule?
The value was 75.5 u/L.

What about the “BLOOD UREA NITROGEN” value [2] of the same molecule?
Its value is 17 mg/dL.

And the “CARBON DIOXIDE” value [2]?
The value was 40.5 mmol/L.

What about the CHLORIDE [2] of the same molecule?
The CHLORIDE was 107 MEQ/L.

And the CHOLESTEROL [2]?
Its CHOLESTEROL is 87.5 mg/dL.

And the “CREATINE PHOSPHOKINASE” value [2]?
The value was 449.5 u/L.

And the CREATININE [2]?
Its CREATININE is 0.55 mg/dL.

And the GLUCOSE [2]?
Its GLUCOSE is 141 mg/dL.

What about the LIPASE [2] of the same molecule?
Its LIPASE is 47.5 u/L.

And the PHOSPHORUS [2]?
The PHOSPHORUS was 9.6 mg/dL.

And the POTASSIUM [2]?
Its POTASSIUM is 6.05 MEQ/L.

And the SODIUM [2]?
The SODIUM was 150.5 MEQ/L.

What about the “TOTAL BILIRUBIN” value [2] of the same molecule?
Its value is 0.3 mg/dL.

What about the “TOTAL PROTEIN” value [2] of the same molecule?
Its value is 6.25 G/DL.

And the “URIC ACID” value [2]?
Its value is 0.8 mg/dL.

What about the ABSOLUTE BASOPHIL [3] of the same molecule?
The ABSOLUTE BASOPHIL was 50 cells/µL.

And the ABSOLUTE EOSINOPHIL [3]?
Its ABSOLUTE EOSINOPHIL is 110 cells/µL.

What about the ABSOLUTE LYMPHOCYTE [3] of the same molecule?
The ABSOLUTE LYMPHOCYTE was 10400 cells/µL.

And the ABSOLUTE MONOCYTE [3]?
Its ABSOLUTE MONOCYTE is 350 cells/µL.

And the BASOPHIL [3]?
Its BASOPHIL is 0.37%.

What about the EOSINOPHIL [3] of the same molecule?
Its EOSINOPHIL is 0.83%.

What about the “ERYTHROCYTE COUNT” value [3] of the same molecule?
The value was 6.25 x10E6/uL.

What about the HEMATOCRIT [3] of the same molecule?
Its HEMATOCRIT is 42.73%.

And the HEMOGLOBIN [3]?
The HEMOGLOBIN was 12.9 G/DL.

What about the “LEUKOCYTE COUNT” value [3] of the same molecule?
The value was 14.26 x10E3/uL.

And the LYMPHOCYTE [3]?
The LYMPHOCYTE was 72.93%.

And the “MEAN CORPUSCULAR HEMOGLOBIN” value [3]?
Its value is 20.63 pg.

What about the “MEAN CORPUSCULAR HEMOGLOBIN CONCENTRATION” value [3] of the same molecule?
The value was 30.17 G/DL.

And the “MEAN CORPUSCULAR VOLUME” value [3]?
The value was 68.4 fL.

What about the MONOCYTE [3] of the same molecule?
Its MONOCYTE is 2.5%.

What about the NEUTROPHIL [3] of the same molecule?
Its NEUTROPHIL is 22.8%.

What about the “PLATELET COUNT” value [3] of the same molecule?
Its value is 1375.33 x10E3/uL.

And the “ALANINE AMINOTRANSFERASE” value [4]?
The value was 41.67 u/L.

What about the ALBUMIN [4] of the same molecule?
The ALBUMIN was 3.77 G/DL.

What about the “ALKALINE PHOSPHATASE” value [4] of the same molecule?
Its value is 331.33 u/L.

What about the “ASPARTATE AMINOTRANSFERASE” value [4] of the same molecule?
Its value is 78 u/L.

And the “BLOOD UREA NITROGEN” value [4]?
Its value is 15.33 mg/dL.

What about the “CARBON DIOXIDE” value [4] of the same molecule?
Its value is 39.67 mmol/L.

And the CHLORIDE [4]?
The CHLORIDE was 108 MEQ/L.

And the CHOLESTEROL [4]?
Its CHOLESTEROL is 85.67 mg/dL.

And the “CREATINE PHOSPHOKINASE” value [4]?
The value was 183 u/L.

And the CREATININE [4]?
The CREATININE was 0.57 mg/dL.

What about the GLUCOSE [4] of the same molecule?
Its GLUCOSE is 168.33 mg/dL.

And the LIPASE [4]?
The LIPASE was 99 u/L.

What about the PHOSPHORUS [4] of the same molecule?
The PHOSPHORUS was 10.23 mg/dL.

And the POTASSIUM [4]?
Its POTASSIUM is 5.97 MEQ/L.

And the SODIUM [4]?
The SODIUM was 150 MEQ/L.

And the “TOTAL BILIRUBIN” value [4]?
Its value is 0.33 mg/dL.

What about the “TOTAL PROTEIN” value [4] of the same molecule?
The value was 6.03 G/DL.

And the “URIC ACID” value [4]?
The value was 1 mg/dL.

And the ABSOLUTE BASOPHIL [5]?
The ABSOLUTE BASOPHIL was 60 cells/µL.

And the ABSOLUTE EOSINOPHIL [5]?
The ABSOLUTE EOSINOPHIL was 110 cells/µL.

What about the ABSOLUTE LYMPHOCYTE [5] of the same molecule?
The ABSOLUTE LYMPHOCYTE was 11600 cells/µL.

What about the ABSOLUTE MONOCYTE [5] of the same molecule?
Its ABSOLUTE MONOCYTE is 300 cells/µL.

And the BASOPHIL [5]?
The BASOPHIL was 0.42%.

What about the EOSINOPHIL [5] of the same molecule?
Its EOSINOPHIL is 0.72%.

What about the “ERYTHROCYTE COUNT” value [5] of the same molecule?
Its value is 6.69 x10E6/uL.

And the HEMATOCRIT [5]?
The HEMATOCRIT was 44.4%.

What about the HEMOGLOBIN [5] of the same molecule?
The HEMOGLOBIN was 14.28 G/DL.

What about the “LEUKOCYTE COUNT” value [5] of the same molecule?
The value was 14.87 x10E3/uL.

What about the LYMPHOCYTE [5] of the same molecule?
Its LYMPHOCYTE is 78.08%.

What about the “MEAN CORPUSCULAR HEMOGLOBIN” value [5] of the same molecule?
The value was 21.3 pg.

And the “MEAN CORPUSCULAR HEMOGLOBIN CONCENTRATION” value [5]?
The value was 32.12 G/DL.

What about the “MEAN CORPUSCULAR VOLUME” value [5] of the same molecule?
Its value is 66.4 fL.

What about the MONOCYTE [5] of the same molecule?
The MONOCYTE was 1.94%.

And the NEUTROPHIL [5]?
Its NEUTROPHIL is 18.22%.

What about the “PLATELET COUNT” value [5] of the same molecule?
Its value is 1074.6 x10E3/uL.

And the “ALANINE AMINOTRANSFERASE” value [6]?
Its value is 40.6 u/L.

What about the ALBUMIN [6] of the same molecule?
Its ALBUMIN is 4 G/DL.

What about the “ALKALINE PHOSPHATASE” value [6] of the same molecule?
The value was 424.4 u/L.

And the “ASPARTATE AMINOTRANSFERASE” value [6]?
Its value is 98.2 u/L.

And the “BLOOD UREA NITROGEN” value [6]?
The value was 19.2 mg/dL.

And the “CARBON DIOXIDE” value [6]?
Its value is 38.8 mmol/L.

And the CHLORIDE [6]?
The CHLORIDE was 105.8 MEQ/L.

What about the CHOLESTEROL [6] of the same molecule?
Its CHOLESTEROL is 73.4 mg/dL.

And the “CREATINE PHOSPHOKINASE” value [6]?
Its value is 274.2 u/L.

What about the CREATININE [6] of the same molecule?
Its CREATININE is 0.8 mg/dL.

What about the GLUCOSE [6] of the same molecule?
The GLUCOSE was 132 mg/dL.

And the “LACTATE DEHYDROGENASE” value [6]?
The value was 214.4 u/L.

What about the LIPASE [6] of the same molecule?
The LIPASE was 11.8 u/L.

And the PHOSPHORUS [6]?
Its PHOSPHORUS is 9.98 mg/dL.

And the POTASSIUM [6]?
The POTASSIUM was 6.02 MEQ/L.

What about the SODIUM [6] of the same molecule?
Its SODIUM is 149.2 MEQ/L.

What about the “TOTAL BILIRUBIN” value [6] of the same molecule?
Its value is 0.36 mg/dL.

And the “TOTAL PROTEIN” value [6]?
Its value is 6.46 G/DL.

And the “URIC ACID” value [6]?
The value was 0.62 mg/dL.

What about the “ABSOLUTE BASOPHIL” value ([…], 72 h, tissue Blood, dose 4.2 mg/Kg, dose level M1, time 3 day) of the same molecule?
Its value is 0 CELLS/uL.
